Measurements: US10166225B2, “Method for treating osteoporosis” (Exelixis, Inc., priority 2011, dated 2019)

B1: OPG: Osteoprotegerin, reference inhibitor of osteoclast differentiation (protein, UniProt O00300 22-401, looked up)
Tumor necrosis factor …: ETFPPKYLHYDEETSHQLLCDKCPPGTYLKQHCTAKWKTVCAPCPDHYYTDSWHTSDECLYCSPVCKELQYVKQECNRTHNRVCECKEGRYLEIEFCLKHRSCPPGFGVVQAGTPERNTVCKRCPDGFFSNETSSKAPCRKHTNCSVFGLLLTQKGNATHDNICSGNSESTQKCGIDVTLCEEAFFRFAVPTKFTPNWLSVLVDNLPGTKVNAESVERIKRQHSSQEQTFQLLKLWKHQNKDQDIVKKIIQDIDLCENSVQRHIGHANLTFEQLRSLMESLPGKKVGAEDIEKTIKACKPSDQILKLLSLWRIKNGDQDTLKGLMHALKHSKTYHFPKTVTQSLKKTIRFLHSFTMYKLYQKLFLEMIGNQVQSVKISCL

What was measured:
[1] = test system: rat ovariectomy (OVX) model; test: Short-term effects on body weight, uterine weight and bone turnover markers in the rat ovariectomy (OVX) model; type: in vivo, rat (Sprague-Dawley); set-up: key to Body weight, change during the first week / Body weight, change during the in-life phase / Relative uterine weight at day 14 / Serum PINP levels, change during the in-life phase / Serum OC levels, change during the in-life phase / Serum CTX levels, change during the in-life phase / Serum TRACP 5b activity, change during the in-life phase: An upwards arrow (↑) indicates a statistically significant increase; a downwards arrow (↓) a statistically significant decrease; One asterisk (*) indicates a statistical significance with a p-value<0.05; two asterisks (**) with a p-value<0.01; three asterisks (***) with a p-value<0.001; NS=Non-significant
Description: The objective of this study was to investigate short-term effects of Compound 1 on biochemical serum markers of bone metabolism in a prevention study in a rat ovariectomy (OVX) model for postmenopausal osteoporosis. 17β-estradiol (E2) was used as a reference compound. The following five experimental groups were included in the study:
Each group contained eight female rats (Sprague-Dawley) that were three months of age at the beginning of in-life phase of the study. Before the start of the in-life phase, animals were weighed, their blood samples were harvested, and animals were randomized to study groups by stratification according to body weight and serum levels of procollagen type I N-terminal propeptide (PINP). At the beginning of the in-life phase, animals were weighed and operated. Treatment was started one day after the operations and continued once a day for two weeks. Sterile water was used as vehicle in groups 1 and 2. Body weight was determined after one week of treatment and treatment doses were adjusted accordingly. After two weeks of treatment, animals were weighed, their blood samples were harvested, animals were terminated, and their relative uterine weight was determined. For analyzing short-term effects of treatments, levels of four bone metabolism biomarkers were determined in serum samples harvested before the start and at the end of the in-life phase. These biomarkers included PINP as a marker of bone formation, N-terminal mid-fragment of osteocalcin (OC) as a general marker of bone turnover, C terminal cross-linked telopeptides of type I collagen (CTX) as a marker of bone resorption, and tartrate-resistant acid phosphatase isoform 5b (TRACP 5b) as a marker of osteoclast number. Serum levels at day −7 were used as baseline levels and serum levels at day 14 as levels affected by operations and treatments.
Each group contained eight female rats (Sprague-Dawley) that were three months of age at the beginning of in-life phase of the study. Animals were randomized to study groups by stratification according to their body weight and serum levels of procollagen type I N-terminal propeptide (PINP) measured one week before the start of the in-life phase (at day −7). At the beginning of the in-life phase (at day 0), animals were weighed, animals in groups 2-5 were ovariectomized, and animals in group 1 SHAM-operated. Treatment was started one day after the operations and continued once a day for two weeks (up to day 13). Sterile water was used as vehicle in groups 1 and 2. Body weight was determined at the beginning of the in-life phase (at day 0), one week after the start of the inlife phase (at day 7), and at the end of the in-life phase (at day 14). Treatment doses were adjusted according to the latest body weight obtained. After two weeks of treatment (at day 14), animals were weighed, their blood samples were harvested, animals were terminated, and their relative uterine weight was determined. For analyzing short-term effects of treatments, levels of four bone metabolism biomarkers were measured in serum samples harvested before the start of the in-life phase (at day −7) and at the end of the in-life phase (at day 14). These biochemical serum markers included PINP, N-terminal mid-fragment of osteocalcin (OC), C-terminal cross-linked telopeptides of type I collagen (CTX), and tartrate-resistant acid phosphatase isoform 5b (TRACP 5b). Serum levels obtained at day −7 were used as baseline levels and serum levels obtained at day 14 as levels affected by surgical operations and treatments.
Biochemical markers of bone metabolism are useful tools for monitoring osteoporosis therapy and for prediction of fracture risk and long-term changes in bone mineral density (Cremers et al. 2008). […]

[2] = test system: KS483 mouse osteoprogenitor cells; test: Osteoblast differentiation assay (cellular ALP activity at day 8); type: cell-based; conditions: reference stimulator, 10 nM
Experimental: In the third part, KS483 mouse osteoprogenitor cells were cultured for 8 days, after which the formed mature osteoblasts were quantitated by measuring the amount of intracellular alkaline phosphatase (ALP) activity. […] The effects on osteoblasts were studied using KS483 mouse osteoprogenitor cells that can be induced to differentiate into bone-forming osteoblasts. […] In the osteoblast differentiation assay, the cells were cultured for 8 days, after which the formed mature osteoblasts were quantitated by measuring the amount of intracellular alkaline phosphatase (ALP) activity. […] A culture system was established that can be used as an in vitro model for studying the effects of anabolic and estrogen-like compounds on osteoblast differentiation and activity. In this culture system mouse KS483 cells first proliferate and then differentiate into osteoblasts capable of forming mineralized bone nodules in the presence of ascorbic acid and ß-glycerophosphate (Fagerlund et al. 2009). The test and reference compounds are added into the cell cultures concomitantly with the medium change, and their effects on the differentiation and activity of osteoblasts are determined. Cellular ALP, a marker of osteoblast differentiation, is determined from the cell lysates as described earlier (Lowry et al. 1954). Secreted PINP, a marker of organic bone matrix formation, is determined from the culture medium using a commercially available method (Rat/Mouse PINP EIA, IDS Ltd, Boldon, UK). Calcium deposition, an index of inorganic bone matrix formation, is measured using a commercially available calcium assay (Roche Diagnostics). Mouse KS483 cells were cultured in T-75 tissue culture flasks in aMEM supplemented with 10% charcoal-stripped fetal bovine serum until 80-90% confluence. The cells were incubated in a CO2 incubator in humidified atmosphere of 95% air and 5% carbon dioxide at 37° C. After reaching 80-90% confluence, subcultures were prepared. Cells were removed from the flasks with trypsin treatment and counted. For induction of the maturation of osteoblasts and bone formation, the immature osteoblastic cells were plated in type I collagen-coated 96-well plates. The cells were cultured for 8 days with a supplement of ascorbic acid ([…]), and half of the media was changed every 3-4 days. The test compound and control substance (E2) were added in the beginning of the culture period and when the medium was changed. The cultures were stopped at day 8 by removing the culture media from the wells, and cell lysates were prepared. Cellular ALP activity and total protein content (Protein Assay, Bio-Rad Laboratories Inc, CA, USA) were quantitated by using VICTOR2™ Multilabel Counter (PerkinElmer, Waltham, Mass., USA).

[3] = test system: KS483 mouse osteoprogenitor cells; test: Osteoblast activity assay (PINP at day 11, calcium deposition at day 13); type: cell-based; conditions: reference stimulator, 10 nM
Experimental: The effects on osteoblasts were studied using KS483 mouse osteoprogenitor cells that can be induced to differentiate into bone-forming osteoblasts. […] In the osteoblast differentiation assay, the cells were cultured for 8 days, after which the formed mature osteoblasts were quantitated by measuring the amount of intracellular alkaline phosphatase (ALP) activity. […] A culture system was established that can be used as an in vitro model for studying the effects of anabolic and estrogen-like compounds on osteoblast differentiation and activity. In this culture system mouse KS483 cells first proliferate and then differentiate into osteoblasts capable of forming mineralized bone nodules in the presence of ascorbic acid and ß-glycerophosphate (Fagerlund et al. 2009). The test and reference compounds are added into the cell cultures concomitantly with the medium change, and their effects on the differentiation and activity of osteoblasts are determined. Cellular ALP, a marker of osteoblast differentiation, is determined from the cell lysates as described earlier (Lowry et al. 1954). Secreted PINP, a marker of organic bone matrix formation, is determined from the culture medium using a commercially available method (Rat/Mouse PINP EIA, IDS Ltd, Boldon, UK). Calcium deposition, an index of inorganic bone matrix formation, is measured using a commercially available calcium assay (Roche Diagnostics). Mouse KS483 cells were cultured in T-75 tissue culture flasks in aMEM supplemented with 10% charcoal-stripped fetal bovine serum until 80-90% confluence. The cells were incubated in a CO2 incubator in humidified atmosphere of 95% air and 5% carbon dioxide at 37° C. After reaching 80-90% confluence, subcultures were prepared. Cells were removed from the flasks with trypsin treatment and counted. For induction of the maturation of osteoblasts and bone formation, the immature osteoblastic cells were plated in type I collagen-coated 96-well plates. The cells were cultured for 13 days with a supplement of ascorbic acid (50 μg/ml) and ß-glycerophosphate (5 mM), and half of the media was changed every 3-4 days. The test compound and control substance (E2) were added in the beginning of the culture period and when the medium was changed. Secreted PINP was measured from the culture medium at day 11 as a marker of organic bone matrix formation. The cultures were stopped at day 13 by removing the culture media from the wells and adding hydrochloric acid. Calcium deposited into the formed bone matrix was quantitated by using VICTOR2™ Multilabel Counter (PerkinElmer, Waltham, Mass., USA).

[4] = test system: human bone marrow-derived CD34+ osteoclast precursor cells; test: Osteoclast differentiation assay (secreted TRACP 5b at day 7); type: cell-based; conditions: reference inhibitor, 5 nM
Experimental: The study was performed in four parts. In the first part, human bone marrow-derived CD34+ osteoclast precursor cells were cultured on bovine bone slices for 7 days, after which the formed osteoclasts were quantitated by measuring tartrate-resistant acid phosphatase 5b activity (TRACP 5b) in the culture medium.
The objective of this study was to investigate the effects of Compound 1 selected by the Sponsor on differentiation and activity of human osteoclasts and mouse osteoblasts in vitro. The effects on osteoclasts were studied using a model where bone marrow-derived human osteoclast precursor cells are cultured on bovine bone slices for 7 days in conditions favouring osteoclast differentiation, and allowed to differentiate into bone-resorbing osteoclasts. After completion of osteoclast differentiation at day 7, the culture medium was removed and new culture medium favouring osteoclast activity was added into the wells. The mature osteoclasts were then cultured for an additional 3 days, allowing them to resorb bone. In the osteoclast differentiation assay, the test compounds and a reference inhibitor osteoprotegerin (OPG) were added into cultures at day 0. In the osteoclast activity assay, the test compounds and a reference inhibitor E64 were added into cultures at day 7. Seven concentrations in 8 replicates were tested in both assays. Tartrate-resistant acid phosphatase 5b activity (TRACP 5b) was measured from the culture medium collected at day 7 as an index of the number of osteoclasts formed in each well during the differentiation period. C-terminal cross-linked telopeptides of type I collagen (CTX) was measured from the culture medium collected at day 10 to quantitate bone resorption during days 7-10.
A human osteoclast culture system was developed for use in this study where CD34+ osteoclast precursor cells derived from human bone marrow (Poietics® Human Osteoclast Precursors, Lonza, Walkersville, USA) are cultured on bovine bone slices in the presence of appropriate growth factors, including M-CSF and RANK-ligand (Rissanen et al. 2009). The cells are first allowed to differentiate into mature bone-resorbing osteoclasts, and the formed osteoclasts are then allowed to resorb bone. The test and reference compounds are added into the cell cultures at the beginning of the differentiation and/or the resorption period, and their effects on the differentiation and/or resorbing activity of osteoclasts are determined.
Secreted TRACP 5b is determined from the culture medium after the differentiation period using a commercially available method (BoneTRAPÒ, IDS Ltd, Boldon, UK). Secreted TRACP 5b describes accurately the number of osteoclasts formed in each well during the differentiation period. CTX is determined from the culture medium after the resorption period using a commercially available method (CrossLapsÒ for cultures, IDS Ltd, Boldon, UK). CTX describes accurately the amount of bone collagen degradation products released into the culture medium in each well during the resorption period.
In this study, human bone marrow-derived CD34+ stem cells (10000 cells/well) were suspended in culture medium and allowed to attach to bovine bone slices in 96-well tissue culture plates. The culture medium (containing 10% FBS, OCP BulletKit® Lonza, Walkersville, USA) was supplemented with appropriate amounts of important growth factors favoring osteoclast differentiation and activity, including M-CSF (33 ng/ml, OCP BulletKit® Lonza, Walkersville, USA) and RANK-ligand (66 ng/ml, OCP BulletKit® Lonza, Walkersville, USA) in 200 μl of medium. The cells were incubated in a CO2 incubator in humidified atmosphere of 95% air and 5% carbon dioxide at 37° C. for 7 days. The test compounds and reference compound OPG were added at day 0. Supernatants collected at day 7 were stored at −70° C. until analysis of TRACP 5b. TRACP 5b was measured from the culture medium (20 μl/sample) using VICTOR2™ Multilabel Counter (PerkinElmer, Waltham, Mass., USA). […]

[5] = OVX rats vs OVX vehicle, E2 4 μg/kg/d s.c.
[6] = OVX rats, 17β-estradiol 4 μg/kg/d s.c., two weeks

Molecule | Body weight, change during the first week [1, 5] | Body weight, change during the in-life phase [1, 5] | Relative uterine weight at day 14 [1, 5] | Serum CTX levels, change during the in-life phase [1, 5] | Serum OC levels, change during the in-life phase [1, 5] | Serum PINP levels, change during the in-life phase [1, 5] | Serum TRACP 5b activity, change during the in-life phase [1, 5] | OVX-induced gain in body weight [1, 6] | OVX-induced increase in serum CTX levels [1, 6] | OVX-induced increase in serum OC levels [1, 6] | OVX-induced increase in serum PINP levels [1, 6] | OVX-induced reduction in relative uterine weight [1, 6] | OVX-induced reduction in serum TRACP 5b activity [1, 6] | effect on osteoblast differentiation [2] | effect on osteoblast activity [3] | effect on osteoclast differentiation [4]
C[C@]12CC[C@@H]3c4ccc(O)cc4CC[C@H]3[C@@H]1CC[C@@H]2O [Compound E2, 17β-estradiol, reference compound] | ↓ ** | ↓ ** | ↑ ** | ↓ *** | ↓ *** | ↓ ** | NS | prevented | prevented | prevented | prevented | prevented | did not affect | stimulated significantly | stimulated significantly | –
B1 | – | – | – | – | – | – | – | – | – | – | – | – | – | – | – | inhibited significantly
